The results in this text go back to patent US20250066353A1, “VANIN-1 INHIBITORS” (ATHOS THERAPEUTICS, INC., priority 2023, published 2025).

One data set addresses Vanin-1 (Homo sapiens (Human), UniProt O95497). The data set can be described thus: VNN1 inhibitor binding assay (Pantothenate-AMC fluorescence). Conditions: for potency (half-maximal inhibitory concentration) compared to RR6: comparison with reference compound RR6. In kind it is biochemical. The protocol: Vanin-1 inhibitor binding assays for selected compounds as described herein, and reference compound RR6 (also “(R)-2,4-dihydroxy-3,3-dimethyl-N-(3-oxo-4-phenylbutyl)butanamide”) were examined and the IC50 values of were determined.
5 μL of 3× (45 μM) of Pantothenate-AMC to achieve final concentrations of 15 μM (0.25% DMSO final) were added in a 384 well assay plate followed by the addition of 5 μL of 3× the desired concentration of the tested compounds (Compound 1; Compound 2; and RR6) in 0.75% DMSO to designated wells (0.25% of DMSO final). The range of the compound concentrations tested was 10, 3.33, 1.11, 0.37, 0.12, 0.04, 0.01, 0.0046, 0.001, and 0.0005 μM. 5 μL of 0.75% DMSO were also added to positive and negative control wells.
5 μL of 1.4 ng/μL Vanain-1 was added to the assay plate to achieve a final amount of 7 ng/well, and covered with plate sealer. Another 5 μL of assay buffer was added to negative controls and the assay plate was then centrifuged briefly (1000 rpm for 30 s) in a plate centrifuge. The assay plate was incubated in the dark for 20 minutes at room temperature and immediately read on an Envision 2105, PerkinElmer multimode plate reader.
The fluorescence read was captured at excitation wavelength of 355 nm and emission wavelength of 460 nm. Percent inhibition of the test compounds was calculated using the following equation: […]
In the above equation, “A” is the relative fluorescence units of the test compound (test compound+Pantothenate-AMC+Vanin1); “B” is the relative fluorescence units of the average minimum (DMSO+Pantothenate-AMC+assay buffer); and “C” is the relative fluorescence units of the average maximum (DMSO+Pantothenate-AMC+Vanin1).

A short description of a further data set: PAMPA permeability assay. Conditions: for Papp at 5 h, 20 µM: 20 μM donor in PBS/MeOH 90:10, 5 hours at room temperature. In kind it is in vitro ADME. The text has this:
Parallel artificial membrane permeability (PAMPA) assay is a non-cell based assay designed to predict in vivo biological membrane permeability of drugs in early stage of drug discovery. The 96-well Corning Gentest Pre-coated PAMPA Plate System (catalog no. 353015) was used to perform the assay. The Corning Gentest Pre-coated PAMPA plate system was designed by 96-well insert system with a […] PVDF (polyvinylidene fluoride) filter plate which has been pre-coated with structured tri-layers of phospholipids (lipid/oil/lipid) and a matched receiver microplate.
Donor solutions of test compounds (300 μL, 20 μM in PBS/MeOH 90:10) were added to each well of the donor plate. 200 μL of PBS/MeOH 90:10 was added to each well of the acceptor plate. The acceptor plate was coupled with the donor plate and incubated for 5 hours at room temperature (RT) without agitation. In each plate, compounds were tested in triplicate. At the end of the incubation, drug concentration in the initial donor solution, acceptor and the donor wells were determined using LC/MS/MS. A five (5) points standard curve from 0.1 to 1000 nM for each test compound were prepared. Analyte samples were diluted to within standard curve concentration with ACN/H2O 50:50 prior analysis.
All samples were analyzed by electrospray ionization (ESI) liquid chromtograph/mass spectrometry (LC/MS) system utilizing Sciex 5500 quadropule ion trap (Qtrap) mass spectrometry with Shidmazu Nexera X2 UHPLC. The LC-MS/MS instrument monitored each of the test compound in the study based of their respective mass-to-charge (m/z) transitions and MS parameters. Chromatographic separation was achieved on Phenomenex Luna C18 column (50×2.0 mm, 3 μm particle size) by using a gradient elution: mobile phase A contains 0.1% formic acid in water and mobile phase B contains 0.1% formic acid in acetonitrile; A/B (99:1) from 0 to 1 minutes; to A/B (1:99) from 1 to 4 minutes; A/B (1:99) from 4 to 8 minutes; to A/B (99:1) from 8 to 8.20 minutes; A/B (99:1) from 8.2 to 9 minutes. The flow rate was 0.4 mL/min and the column temperature was maintained at 35° C. and autosampler temperature at 4° C. For detection, the electrospray ionization operated in the positive mode using multiple reaction monitoring (MRM).
Data acquisition, and peak integrations were obtained by Analyst® Version 1.7.1 (Sciex) operating with Windows® (Microsoft). The standard curve regressions and sample concentrations were generated and calculated by Analyst®. Concentrations in the sample solutions were determined based on the measured peak area ratios from the response of the analyte to the internal standard with reference to the standard calibration curve. All sample calculations were calculated using a linear regression with 1/x2 weighting (where x is the concentration of given calibration standard level).
Permeability of the test compounds was calculated using the following formula:
Where: • A=filter area=[…] • VA=acceptor well volume (0.2 mL) • VD=donor well volume […], • t=incubation time=5 hours=18000 seconds, • CA(t)=compound concentration in acceptor well at time t (nM), • CD(t)=compound concentration in donor well at time t (nM), and […]

[1] abbreviates: 15 μM Pantothenate-AMC, 7 ng/well Vanin-1, 20 minutes at room temperature, read-out: Vanin-1 IC50.

pIC50: −log10 of the molar value. Like-named read-outs stand apart in the source and are kept apart here.

Vanin-1, sequence (O95497 22-513): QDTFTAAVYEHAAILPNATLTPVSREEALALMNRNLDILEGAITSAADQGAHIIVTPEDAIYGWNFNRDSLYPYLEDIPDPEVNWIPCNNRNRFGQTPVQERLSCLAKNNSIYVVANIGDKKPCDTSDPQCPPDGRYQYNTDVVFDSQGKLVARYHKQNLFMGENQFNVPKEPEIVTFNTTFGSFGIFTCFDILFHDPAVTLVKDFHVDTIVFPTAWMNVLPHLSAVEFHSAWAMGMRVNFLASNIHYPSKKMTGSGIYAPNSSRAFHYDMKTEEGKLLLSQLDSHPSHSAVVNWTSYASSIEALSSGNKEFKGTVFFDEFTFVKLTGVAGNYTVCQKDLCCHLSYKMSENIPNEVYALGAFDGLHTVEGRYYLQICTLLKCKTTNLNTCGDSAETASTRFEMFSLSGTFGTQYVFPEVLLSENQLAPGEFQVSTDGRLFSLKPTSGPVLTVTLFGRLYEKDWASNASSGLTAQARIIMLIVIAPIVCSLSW

By pIC50 is commonly meant −log10 of the IC50, conventionally taken in molar units. Take `CCC(=O)NCCN1Cc2nc(NCc3ccc(F)cc3C)ccc2C1=O` [Compound 78, N-(2-(2-((4-fluoro-2-methylbenzyl)amino)-5-oxo-5,7-dihydro-6H-pyrrolo[3,4-b]pyridin-6-yl)ethyl)propionamide]: the pIC50 at Vanin-1 (setting [1]) was 5.00 to 6.00.

As for `O=C1c2ccc(NCc3cccnc3)nc2CN1Cc1cnccn1` [Compound 17], the pIC50 at Vanin-1 (setting [1]) is 5.00 to 6.00.

As for `COc1ccccc1CNc1ccc2c(n1)CN(CCNC(C)=O)C2=O` [Compound 28, N-(2-(2-((2-methoxybenzyl)amino)-5-oxo-5,7-dihydro-6H-pyrrolo[3,4-b]pyridin-6-yl)ethyl)acetamide], the pIC50 on Vanin-1 (setting [1]) is 5.00 to 6.00.

`CC(=O)NCCN1Cc2nc(NCc3ccncc3)ccc2C1=O` [Compound 27, N-(2-(5-oxo-2-((pyridin-4-ylmethyl)amino)-5,7-dihydro-6H-pyrrolo[3,4-b]pyridin-6-yl)ethyl)acetamide]: on Vanin-1 (setting [1]), the pIC50 is 5.00 to 6.00.

The Papp is the rate of passage across a membrane or cell layer, normalised by area and donor concentration. In turn, `CC(=O)NCCN1Cc2nc(NCc3c(F)cc(F)cc3F)ccc2C1=O` [Compound 37, N-(2-(5-oxo-2-((2,4,6-trifluorobenzyl)amino)-5,7-dihydro-6H-pyrrolo[3,4-b]pyridin-6-yl)ethyl)acetamide] yielded a Papp at 5 h, 20 µM in “PAMPA permeability assay” of 0.68 ×10⁻⁶ cm/s.

Consider `CC(=O)NCCN1Cc2nc(NCc3ccc(C#N)nc3)ccc2C1=O` [Compound 40, N-(2-(2-(((6-cyanopyridin-3-yl)methyl)amino)-5-oxo-5,7-dihydro-6H-pyrrolo[3,4-b]pyridin-6-yl)ethyl)acetamide], for which the pIC50 at Vanin-1 (setting [1]) is 5.00 to 6.00.

`CC(C)(CO)[C@@H](O)C(=O)NCCC(=O)Cc1ccccc1` [RR6, (R)-2,4-dihydroxy-3,3-dimethyl-N-(3-oxo-4-phenylbutyl)butanamide, reference compound] showed a pIC50 on Vanin-1 of 5.00 to 6.00.

As for `CC(C)N1Cc2nc(NCc3cccnc3)ccc2C1=O` [Compound 19], on Vanin-1 (setting [1]), the pIC50 was 5.00 to 6.00.

Regarding `CC(=O)NCCCN1Cc2nc(NCc3cccnc3)ccc2C1=O` [Compound 15, N-(3-(5-Oxo-2-((pyridin-3-ylmethyl)amino)-5,7-dihydro-6H-pyrrolo[3,4-b]pyridin-6-yl)propyl)acetamide], at Vanin-1 (setting [1]), the pIC50 was 5.00 to 6.00.

In the case of `COc1ccc(F)cc1CNc1ccc2c(n1)CN(CCNC(C)=O)C2=O` [Compound 29, N-(2-(2-((5-fluoro-2-methoxybenzyl)amino)-5-oxo-5,7-dihydro-6H-pyrrolo[3,4-b]pyridin-6-yl)ethyl)acetamide], the pIC50 at Vanin-1 (setting [1]) was 5.00 to 6.00.

For the compound `CC(=O)NCCN1Cc2nc(NCc3cnccn3)ccc2C1=O` [Compound 50], the negative logarithm of the IC50 (pIC50) on Vanin-1 (setting [1]) is 5.00 to 6.00.

As to `CCC(=O)NCCN1Cc2nc(NCc3cc(F)c(F)c(F)c3)ccc2C1=O` [Compound 72, N-(2-(5-oxo-2-((3,4,5-trifluorobenzyl)amino)-5,7-dihydro-6H-pyrrolo[3,4-b]pyridin-6-yl)ethyl)propionamide], the negative logarithm of the IC50 (pIC50) at Vanin-1 (setting [1]) is 5.00 to 6.00.

On to `N#Cc1cncc(CNc2ccc3c(n2)CN(CCNC(=O)C2CC2)C3=O)c1` [Compound 43, N-(2-(2-(((5-cyanopyridin-3-yl)methyl)amino)-5-oxo-5,7-dihydro-6H-pyrrolo[3,4-b]pyridin-6-yl)ethyl)cyclopropanecarboxamide], for which the pIC50 on Vanin-1 (setting [1]) is less than 5.00.

Consider `CN(C)CCCN1Cc2nc(NCc3cccnc3)ccc2C1=O` [Compound 13, 6-(3-(Dimethylamino)propyl)-2-((pyridin-3-ylmethyl)amino)-6,7-dihydro-5H-pyrrolo[3,4-b]pyridin-5-one], for which, on Vanin-1 (setting [1]), the negative logarithm of the IC50 (pIC50) is 5.00 to 6.00.

In the case of `CCC(=O)NCCN1Cc2nc(NCc3cnccc3C(F)(F)F)ccc2C1=O` [Compound 74, N-(2-(5-oxo-2-(((4-(trifluoromethyl)pyridin-3-yl)methyl)amino)-5,7-dihydro-6H-pyrrolo[3,4-b]pyridin-6-yl)ethyl)propionamide], the negative logarithm of the IC50 (pIC50) at Vanin-1 (setting [1]) is 5.00 to 6.00.

Consider `O=C1NCc2nc(NCc3cccnc3)ccc21` [Compound 1, 2-((Pyridin-3-ylmethyl)amino)-6,7-dihydro-5H-pyrrolo[3,4-b]pyridin-5-one], for which the “potency (half-maximal inhibitory concentration) compared to RR6” value at Vanin-1 was “up to two orders of magnitude greater than RR6”.

On to `CC(=O)NCCN1Cc2nc(NCc3cc(F)c(F)c(F)c3)ccc2C1=O` [Compound 71, N-(2-(5-oxo-2-((3,4,5-trifluorobenzyl)amino)-5,7-dihydro-6H-pyrrolo[3,4-b]pyridin-6-yl)ethyl)acetamide], for which the pIC50 on Vanin-1 (setting [1]) was 5.00 to 6.00.

For `O=C1c2ccc(NCc3cccnc3)nc2CN1c1ccccc1` [Compound 11], at Vanin-1 (setting [1]), the pIC50 is less than 5.00.

On to `O=C1NCCc2nc(NCc3cccnc3)ccc21` [Compound 2, 2-((Pyridin-3-ylmethyl)amino)-7,8-dihydro-1,6-naphthyridin-5(6H)-one], for which, at Vanin-1 (setting [1]), the negative logarithm of the IC50 (pIC50) was 5.00 to 6.00. Also, at Vanin-1, the “potency (half-maximal inhibitory concentration) compared to RR6” value is recorded as “comparable to RR6”.

Turning to `CN(C)C(C)(C)CN1Cc2nc(NCc3cccnc3)ccc2C1=O` [Compound 12, 6-(2-(Dimethylamino)-2-methylpropyl)-2-((pyridin-3-ylmethyl)amino)-6,7-dihydro-5H-pyrrolo[3,4-b]pyridin-5-one], the pIC50 at Vanin-1 (setting [1]) was 5.00 to 6.00.

Consider `CN(C)CCN1Cc2nc(NCc3cccnc3)ccc2C1=O` [Compound 4, 6-(2-(Dimethylamino)ethyl)-2-((pyridin-3-ylmethyl)amino)-6,7-dihydro-5H-pyrrolo[3,4-b]pyridin-5-one], for which the pIC50 at Vanin-1 (setting [1]) is 5.00 to 6.00.

With `CC(=O)NCCN1Cc2nc(N[C@H](C)c3cccnc3)ccc2C1=O` [Compound 22, (R)—N-(2-(5-oxo-2-((1-(pyridin-3-yl)ethyl)amino)-5,7-dihydro-6H-pyrrolo[3,4-b]pyridin-6-yl)ethyl)acetamide], the pIC50 on Vanin-1 (setting [1]) is less than 5.00.

Consider `[2H]C([2H])([2H])C(=O)NCCN1Cc2nc(NCc3c(F)cc(F)cc3F)ccc2C1=O` [Compound 202, N-(2-(5-oxo-2-((2,4,6-trifluorobenzyl)amino)-5,7-dihydro-6H-pyrrolo[3,4-b]pyridin-6-yl)ethyl)acetamide-2,2,2-d3], for which the Papp at 5 h, 20 µM in “PAMPA permeability assay” amounted to 1.83 ×10⁻⁶ cm/s. Besides, the “permeability compared to non-deuterated counterparts” value in “PAMPA permeability assay” (deuterated vs non-deuterated (Compounds 37 and 73, respectively)) is reported as “improved permeability”.

In the data set “PAMPA permeability assay”, `CCC(=O)NCCN1Cc2nc(NCc3c(F)cc(F)cc3F)ccc2C1=O` [Compound 73, N-(2-(5-oxo-2-((2,4,6-trifluorobenzyl)amino)-5,7-dihydro-6H-pyrrolo[3,4-b]pyridin-6-yl)ethyl)propionamide] displayed an apparent permeability (Papp) at 5 h, 20 µM of 0.79 ×10⁻⁶ cm/s.

Turning to `CC(=O)NCCN1Cc2nc(NCc3cncc(F)c3)ccc2C1=O` [Compound 26, N-(2-(2-(((5-fluoropyridin-3-yl)methyl)amino)-5-oxo-5,7-dihydro-6H-pyrrolo[3,4-b]pyridin-6-yl)ethyl)acetamide], the pIC50 on Vanin-1 (setting [1]) was 5.00 to 6.00.

Regarding `CC(=O)NC(C)(C)CN1Cc2nc(NCc3cccnc3)ccc2C1=O` [Compound 38, N-(2-methyl-1-(5-oxo-2-((pyridin-3-ylmethyl)amino)-5,7-dihydro-6H-pyrrolo[3,4-b]pyridin-6-yl)propan-2-yl)acetamide], at Vanin-1 (setting [1]), the pIC50 was 5.00 to 6.00.
